Entries after “also recorded” stand apart in the source; their conditions may differ.
Legend:
[1] = DPPH antioxidant activity assay (organic medium); format: biochemical; conditions: for % Radical Inhibition: DPPH
Source text: The 2,2-diphenyl-1-picrylhydrazyl (DPPH) antioxidant assay is designed to evaluate the antioxidant activity of compositions comprising eriodictyol in an organic medium. […] In the presence of an antioxidant DPPH is reduced, resulting in the formation of a colorless solution. Reduction of absorbance at 517 nm is standardized to solvent control as an indication of DPPH scavenging.

[2] = tested on: TFPI2 (tissue factor pathway inhibitor 2); assay: Gene modulation; format: cell-based
Source text: (§1) Table 9, provided below, incorporates the gene modulation data for formulations comprising eriodictyol.

[3] = tested on: PPFIA4 (PTPRF interacting protein alpha 4); assay: Gene modulation; format: cell-based
Source text: as §1

[4] = tested on: MMP3 (Matrix Metallopeptidase 3); assay: Gene modulation; format: cell-based
Source text: as §1

[5] = tested on: MMP10 (matrix metallopeptidase 10); assay: Gene modulation; format: cell-based
Source text: as §1

[6] = tested on: ALDH1A3 (aldehyde dehydrogenase 1 family member A3); assay: Gene modulation; format: cell-based
Source text: as §1

[7] = tested on: SLC13A5 (Solute carrier family 13 member 5); assay: Gene modulation; format: cell-based
Source text: as §1

IL23A (Interleukin 23) = assay: Gene modulation; format: cell-based
Source text: as §1

[8] = tested on: TOP2A (DNA topoisomerase II alpha); assay: Gene modulation; format: cell-based
Source text: as §1

[9] = tested on: ATP12A (ATPase H+/K+ transporting non-gastric alpha2 subunit); assay: Gene modulation; format: cell-based
Source text: as §1

[10] = tested on: MKI67 (marker of proliferation Ki-67); assay: Gene modulation; format: cell-based
Source text: as §1

FN1 (fibronectin 1) = assay: Gene modulation; format: cell-based
Source text: as §1

[11] = tested on: KCTD4 (potassium channel tetramerization domain containing 4); assay: Gene modulation; format: cell-based
Source text: as §1

IL6 (Interleukin 6) = assay: Gene modulation; format: cell-based
Source text: as §1

FST (follistatin) = assay: Gene modulation; format: cell-based
Source text: as §1

[12] = tested on: MMP9 (Matrix Metallopeptidase 9); assay: Gene modulation; format: cell-based
Source text: as §1

IL24 (Interleukin 24) = assay: Gene modulation; format: cell-based
Source text: as §1

THBS1 (thrombospondin 1) = assay: Gene modulation; format: cell-based
Source text: as §1

[13] = tested on: TNF (Tumor Necrosis Factor); assay: Gene modulation; format: cell-based
Source text: as §1

[14] = tested on: MMP1 (matrix metallopeptidase 1); assay: Gene modulation; format: cell-based
Source text: as §1

tyrosinase = tyrosinase (Mus musculus, UniProt P11344); conditions: cited from earlier work
[15] = ABTS antioxidant assay (aqueous medium); format: biochemical; conditions: for % Radical Inhibition: ABTS
Source text: ABTS+ solution is generated as a free radical and used to measure relative ability of a compound to scavenge free radicals. Reduction of the absorbance at 734 nm was standardized to solvent control as an indication of ABTS+ scavenging.

[16] = Glycation inhibition assay; format: biochemical; conditions: for % Enzyme Inhibition: glycation
Procedure: The assay was conducted to evaluate the glycation inhibition activity of compositions comprising eriodictyol. Nonenzymatic glycation can occur when glucose reacts with proteins, forming a Schiff base intermediate that subsequently undergoes Amadori rearrangement to form glycosylated proteins, when they react with skin proteins to form Advanced Glycation End products (AGE). AGE formation can result in loss of skin elasticity and impaired cellular function. The glycation inhibition ability of a compound is measured by change in fluorescence at excitation/emission of 360 nm/420 nm relative to solvent control.

TRPV1 receptors = TRPV1 receptors (Homo sapiens, UniProt Q8NER1); conditions: acting on TRPV1 receptors; Deng et al. 2020; cited from earlier work
ICR mice = conditions: mouse skin; Park et al. 2013; cited from earlier work
Nrf2/HO-1 pathway = conditions: mice, acting on the Nrf2/HO-1 pathway; Li et al. 2022; cited from earlier work
Keratinocytes = conditions: skin; cited from earlier work
macrophage cells = conditions: cited from earlier work
[17] = Solubility of eriodictyol in solvents; format: physicochemical
[18] = Stability of eriodictyol in dimethyl isosorbide; format: physicochemical
Source text: Thus, the compositions of the invention will also be stable for storage for at least 2 years under ambient conditions.

melanoma cells = conditions: cited from earlier work
[19] = target: T1, human neutrophil elastase (Homo sapiens, UniProt P08246); assay: Elastase enzyme inhibition; format: biochemical
T1 sequence (P08246 30-267): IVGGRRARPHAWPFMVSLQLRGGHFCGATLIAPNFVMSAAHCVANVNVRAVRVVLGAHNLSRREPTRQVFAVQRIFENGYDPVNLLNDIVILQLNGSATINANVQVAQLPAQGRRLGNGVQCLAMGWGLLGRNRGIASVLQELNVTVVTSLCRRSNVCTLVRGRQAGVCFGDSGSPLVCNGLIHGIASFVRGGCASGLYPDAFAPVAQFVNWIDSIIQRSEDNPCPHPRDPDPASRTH
Procedure: The assay was conducted to evaluate the elastase enzyme inhibition activity of compositions comprising eriodictyol. Neutrophil infiltration and neutrophil elastase are both increased in the skin in response to UV stress. […] Therefore, inhibition of this enzyme, particularly in combination with antioxidant activity, is effective in delaying wrinkle development and aiding in maintaining skin integrity. This assay is measures release of 4-nitroaniline from an Me-Suc-[…] by human neutrophil elastase and can be quantified at 405 nm by comparing to solvent control.

TRPV1 receptors, sequence (Q8NER1 whole entry): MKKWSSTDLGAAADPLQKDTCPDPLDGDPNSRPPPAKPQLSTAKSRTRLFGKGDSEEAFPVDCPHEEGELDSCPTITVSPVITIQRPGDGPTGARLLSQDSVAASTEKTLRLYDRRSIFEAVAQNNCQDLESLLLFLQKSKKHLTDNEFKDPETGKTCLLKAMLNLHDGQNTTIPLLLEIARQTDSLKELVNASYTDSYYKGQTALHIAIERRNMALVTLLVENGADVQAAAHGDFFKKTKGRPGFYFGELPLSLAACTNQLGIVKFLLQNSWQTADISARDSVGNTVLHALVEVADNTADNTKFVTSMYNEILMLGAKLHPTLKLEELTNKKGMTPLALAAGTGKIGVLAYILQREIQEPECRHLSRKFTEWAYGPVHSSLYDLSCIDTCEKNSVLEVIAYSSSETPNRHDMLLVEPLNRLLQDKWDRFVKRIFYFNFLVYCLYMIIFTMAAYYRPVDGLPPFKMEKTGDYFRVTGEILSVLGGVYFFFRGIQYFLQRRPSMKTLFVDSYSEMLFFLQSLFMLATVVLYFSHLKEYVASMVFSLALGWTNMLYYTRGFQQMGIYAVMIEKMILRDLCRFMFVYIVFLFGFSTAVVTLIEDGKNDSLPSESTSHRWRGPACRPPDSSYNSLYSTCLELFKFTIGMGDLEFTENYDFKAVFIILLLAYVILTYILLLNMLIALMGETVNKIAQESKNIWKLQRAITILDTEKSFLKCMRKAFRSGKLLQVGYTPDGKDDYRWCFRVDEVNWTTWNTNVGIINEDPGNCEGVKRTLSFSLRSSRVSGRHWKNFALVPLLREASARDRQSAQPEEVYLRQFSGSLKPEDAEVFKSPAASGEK
tyrosinase, sequence (P11344 19-533): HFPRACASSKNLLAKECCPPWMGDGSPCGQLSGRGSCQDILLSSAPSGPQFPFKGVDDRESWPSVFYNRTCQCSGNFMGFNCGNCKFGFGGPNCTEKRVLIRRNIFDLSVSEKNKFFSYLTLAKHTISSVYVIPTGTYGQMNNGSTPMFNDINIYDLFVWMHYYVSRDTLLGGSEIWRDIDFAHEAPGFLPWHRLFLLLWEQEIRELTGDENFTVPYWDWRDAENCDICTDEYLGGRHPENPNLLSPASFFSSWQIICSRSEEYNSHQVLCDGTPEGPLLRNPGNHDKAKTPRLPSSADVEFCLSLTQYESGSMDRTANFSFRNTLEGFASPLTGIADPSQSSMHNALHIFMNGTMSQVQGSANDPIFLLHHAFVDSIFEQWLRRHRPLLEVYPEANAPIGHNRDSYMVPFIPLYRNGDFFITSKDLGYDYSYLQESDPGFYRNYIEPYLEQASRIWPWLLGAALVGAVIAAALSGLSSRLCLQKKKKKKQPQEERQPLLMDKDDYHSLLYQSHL

## O=C1C[C@@H](c2ccc(O)c(O)c2)Oc2cc(O)cc(O)c21 [eriodictyol]
[1]; eriodictyol 0.00007 % w/w
  % Radical Inhibition: 21.22%
[1]; eriodictyol 0.00046 % w/w
  % Radical Inhibition: 81.45%
[1]; eriodictyol 0.00278 % w/w
  % Radical Inhibition: 81.95%
[1]; organic solvent system, calculated
  IC50 antioxidant activity: 0.0002 % w/w
[1]; organic solvent systems
  Lowest concentration demonstrating antioxidant activity: 0.00007 % w/w
[2]; TFPI2
  Treatment (gene expression level): 34.1
[2]; TFPI2, treatment vs control
  Fold Change: −17.1
[3]; PPFIA4
  Treatment (gene expression level): 628.6
[3]; PPFIA4, treatment vs control
  Fold Change: 27.9
[4]; MMP3
  Treatment (gene expression level): 8.2
[4]; MMP3, treatment vs control
  Fold Change: −48.5
[5]; MMP10
  Treatment (gene expression level): 106.9
[5]; MMP10, treatment vs control
  Fold Change: −24.3
[6]; ALDH1A3
  Treatment (gene expression level): 168.0
[6]; ALDH1A3, treatment vs control
  Fold Change: −9.8
[7]; SLC13A5
  Treatment (gene expression level): 5.9
[7]; SLC13A5, treatment vs control
  Fold Change: −13.9
IL23A (Interleukin 23)
  Treatment (gene expression level): 5.9
IL23A (Interleukin 23); treatment vs control
  Fold Change: −6.1
[8]
  Treatment (gene expression level): 37.6
[8]; treatment vs control
  Fold Change: −18.4
[9]
  Treatment (gene expression level): 76.4
[9]; treatment vs control
  Fold Change: −11.3
[10]; MKI67
  Treatment (gene expression level): 78.7
[10]; MKI67, treatment vs control
  Fold Change: −10.6
FN1 (fibronectin 1); FN1
  Treatment (gene expression level): 146.9
FN1 (fibronectin 1); FN1, treatment vs control
  Fold Change: −12.1
[11]; KCTD4
  Treatment (gene expression level): 36.4
[11]; KCTD4, treatment vs control
  Fold Change: −14.9
IL6 (Interleukin 6); IL6
  Treatment (gene expression level): 1.2
IL6 (Interleukin 6); IL6, treatment vs control
  Fold Change: −19.7
FST (follistatin)
  Treatment (gene expression level): 96.4
FST (follistatin); treatment vs control
  Fold Change: −9.8
[12]; MMP9
  Treatment (gene expression level): 527.6
[12]; MMP9, treatment vs control
  Fold Change: −8.6
IL24 (Interleukin 24); IL24
  Treatment (gene expression level): 1.2
IL24 (Interleukin 24); IL24, treatment vs control
  Fold Change: −73.5
THBS1 (thrombospondin 1); THBS1
  Treatment (gene expression level): 344.3
THBS1 (thrombospondin 1); THBS1, treatment vs control
  Fold Change: −16.0
[13]
  Treatment (gene expression level): 0.0
[13]; treatment vs control
  Fold Change: −256.0
[14]; MMP1
  Treatment (gene expression level): 972.9
[14]; MMP1, treatment vs control
  Fold Change: −11.3
tyrosinase
  Tyrosinase inhibition: inhibiting tyrosinase
[15]; eriodictyol 0.00016 % w/w
  % Radical Inhibition: 11.00%
[15]; eriodictyol 0.0008 % w/w
  % Radical Inhibition: 58.72%
[15]; eriodictyol 0.004 % w/w
  % Radical Inhibition: 92.97%
[15]; aqueous solvent system, calculated
  IC50 antioxidant activity: 0.00062 % w/w
[15]; aqueous systems
  Lowest concentration demonstrating antioxidant activity: 0.00016 % w/w
[16]
  Lowest concentration inhibiting glycation: 0.002 % w/w
[16]; calculated
  IC50 glycation inhibition: 0.0088 % w/w
[16]; eriodictyol 0.002 % w/w
  % Enzyme Inhibition: 38.43%
[16]; eriodictyol 0.007 % w/w
  % Enzyme Inhibition: 86.18%
[16]; eriodictyol 0.022 % w/w
  % Enzyme Inhibition: 90.26%
TRPV1 receptors
  Neuroinflammation and hypererythema: reduces neuroinflammation and relieves hypererythema
ICR mice
  Symptoms of atopic dermatitis: alleviating symptoms of atopic dermatitis
Nrf2/HO-1 pathway
  Cognitive decline: decreases cognitive decline
Keratinocytes
  Protection from UVA-induced photodamage and apoptosis: protecting skin from UVA-induced photodamage and apoptosis
Macrophage cells
  Anti-inflammatory activity: inflammatory markers: decrease inflammatory markers
[17]; in Caprylic/Capric Triglyceride
  Solubility (% w/w): only minimally soluble; also recorded: Not soluble
[17]; in Helianthus Annuus (Sunflower) Seed Oil
  Solubility (% w/w): insoluble; also recorded: Not soluble
[17]; in Pentylene Glycol
  Solubility (% w/w): only minimally soluble; also recorded: Not soluble
[17]; in oil
  Solubility: poorly soluble or insoluble
[17]; in water
  Solubility: poorly soluble or insoluble
[18]; 4 C.
  30 day % remaining: 104.66%
  90 day % remaining: 97.15%
[18]; 25 C.
  30 day % remaining: 100.78%
  90 day % remaining: 91.72%
  180 day % remaining: 90.30%
[18]; 40 C.
  30 day % remaining: 93.53%
  90 day % remaining: 98.06%
[18]; 50 C.
  30 day % remaining: 95.73%
Melanoma cells
  Melanogenesis: decreases melanogenesis
[19]
  Lowest concentration inhibiting elastase enzyme activity: 0.008 % w/w
[19]; calculated
  IC50 elastase enzyme inhibition: 0.107 % w/w
[19]; elastase, eriodictyol 0.008 % w/w
  inhibition at 0.008 % strength: 17.6%
[19]; elastase, eriodictyol 0.04 % w/w
  inhibition at 0.04 % strength: 23.1%
[19]; elastase, eriodictyol 0.2 % w/w
  inhibition at 0.2 % strength: 58.1%

Reference: patent publication US20250049679A1, “FORMULATIONS OF ERIODICTYOL” (DEBUT BIOTECHNOLOGY, INC., priority 2023, published 2025)
